# Assay results as given in PubChem BioAssay (NCI).
# Values joined by “and” are separate entries in the source; they are usually repeats but may differ in a detail not shown here. Identical values can stand only once.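 Exposure lasted 48 hours, with cells grown in 96-well plates and compounds tested at five concentrations. GI50: concentration for 50% inhibition of growth. TGI: total growth inhibition.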
# Experiments:
# Assay in all cases: DTP human tumour cell line panel, 48 h
# HOP-62 NSCLC = test system: HOP-62 NSCLC
# CCRF-CEM leukemia = test system: CCRF-CEM leukemia
# HOP-92 NSCLC = test system: HOP-92 NSCLC
# IGROV1 ovarian = test system: IGROV1 ovarian
# SF-295 CNS = test system: SF-295 CNS
# TK-10 renal = test system: TK-10 renal
# OVCAR-8 ovarian = test system: OVCAR-8 ovarian
# NCI/ADR-RES ovarian = test system: NCI/ADR-RES ovarian
# LXFL 529 NSCLC = test system: LXFL 529 NSCLC
SMILES,GI50 (HOP-62 NSCLC),TGI (HOP-62 NSCLC),GI50 (CCRF-CEM leukemia),TGI (CCRF-CEM leukemia),GI50 (HOP-92 NSCLC),TGI (HOP-92 NSCLC),GI50 (IGROV1 ovarian),TGI (IGROV1 ovarian),GI50 (SF-295 CNS),TGI (SF-295 CNS),GI50 (TK-10 renal),TGI (TK-10 renal),GI50 (OVCAR-8 ovarian),TGI (OVCAR-8 ovarian),GI50 (NCI/ADR-RES ovarian),TGI (NCI/ADR-RES ovarian),TGI (LXFL 529 NSCLC)
O=C(NOCCO)c1ccc2cncn2c1Nc1ccc(I)cc1F,0.0159 µM and < 0.0182 µM,> 71.4 µM,> 10 µM and 28.1 µM,> 100 µM,0.0147 µM and 0.0103 µM,0.325 µM and 0.0811 µM,0.013 µM and 0.0532 µM,> 100 µM,> 56.5 µM,> 100 µM,0.00874 µM and < 0.0129 µM,> 100 µM,> 10 µM and 19.4 µM,> 100 µM,> 10 µM and 29.4 µM,> 100 µM,–
CCCCCCCCCC(=O)Oc1ccc(/C(=C(/C)c2ccccc2)c2ccc(OCCN3CCCC3)cc2)cc1,8.75 µM,17.3 µM,9.51 µM,22.3 µM,7.01 µM,15.4 µM,8.67 µM,19.5 µM,7.93 µM,15.1 µM,8.86 µM,16.7 µM,9.78 µM,20.8 µM,8.03 µM,16.9 µM,–
N#Cc1sc2nc3c(c(-c4ccccc4)c2c1N)CCCC3,–,–,–,> 100 µM,–,> 100 µM,–,–,–,43.6 µM,–,> 100 µM,–,> 100 µM,–,–,> 100 µM
CN(C)NC(=O)NC12CC3CC(CC(C3)C1)C2,–,–,–,> 100 µM,–,> 100 µM,–,> 100 µM,–,> 100 µM,–,> 10 µM,–,> 100 µM,–,–,> 100 µM
CNC(=O)c1sc(-n2cnc3cc(OC)c(OC)cc32)cc1OCc1ccccc1C(F)(F)F,> 25 µM,> 25 µM,> 25 µM,> 25 µM,2.2 µM,> 25 µM,> 25 µM,> 25 µM,> 21.4 µM,> 25 µM,> 25 µM,> 25 µM,> 19.2 µM,> 25 µM,14.9 µM,> 25 µM,–
COc1cc(/C=N\Nc2ccccc2)ccc1OC(=O)c1ccccc1,8.38 µM,> 64.7 µM,2.44 µM,> 100 µM,12.2 µM,> 89 µM,2.76 µM,> 100 µM,1.92 µM,10.7 µM,16.5 µM,68.3 µM,3.46 µM,> 100 µM,0.903 µM,> 100 µM,–
Cc1nc2ccccc2c(=O)n1/N=C(\N=Nc1cc(Cl)ccc1Cl)c1ccc(N(C)C)cc1,–,83 µM,–,> 100 µM,–,–,–,> 100 µM,–,–,–,> 100 µM,–,> 100 µM,–,–,> 100 µM
COc1cc2c3c(c4cc(OC)c(OC)cc4c2cc1OC)CN1CCC[C@H]1C3,0.0409 µM and < 0.0147 µM,2.85 µM,0.0524 µM and < 0.0104 µM,0.977 µM and 4.84 µM,0.0366 µM and < 0.0105 µM,1.34 µM and 0.695 µM,0.0433 µM and < 0.01 µM,1.45 µM and 1.42 µM,0.0357 µM and 0.01 µM,–,–,0.103 µM and 0.497 µM,0.0381 µM and < 0.0103 µM,> 34 µM,0.111 µM and 0.0379 µM,–,–
CCOC(=O)C(=O)CC(=O)C(Br)C(Br)c1ccc(Cl)cc1 (stereo unspecified),–,> 100 µM,–,29.3 µM,–,59.6 µM,–,> 100 µM,–,> 100 µM,–,> 100 µM,–,> 100 µM,–,–,31.9 µM
Nc1nc(SCC#CCCl)c2[nH]cnc2n1,9.94 µM,24.3 µM,3.39 µM,19.3 µM,2.16 µM,10.4 µM,4.58 µM,23 µM,3.65 µM,17.1 µM,1.87 µM,11.1 µM,11.6 µM,33.1 µM,6.16 µM,30.4 µM,–
Cc1cnc(C(=O)Nc2nc3ccc(S(=O)(=O)Nc4ccc(C(C)(C)C)cc4)cc3[nH]2)cn1,0.785 µM,18.8 µM,0.415 µM,14.5 µM,0.553 µM,7.24 µM,0.776 µM,12.3 µM,0.401 µM,4.21 µM,2.53 µM,15.2 µM,1.26 µM,17.2 µM,0.37 µM,3.57 µM,–
CN1CCN(Cc2ccc(NC(=O)c3cncc(C#Cc4c(N)ncc5ccccc45)c3)cc2C(F)(F)F)CC1,0.733 µM,1.66 µM,0.14 µM,1.47 µM,0.158 µM,0.836 µM,0.373 µM,1.2 µM,0.786 µM,1.57 µM,0.919 µM,1.66 µM,0.839 µM,1.91 µM,0.945 µM,2.21 µM,–
CSCSCC(CO)NC(=O)/C=C/c1c(C)[nH]c(=O)[nH]c1=O (stereo unspecified),–,–,–,> 100 µM,–,> 100 µM,–,–,–,> 100 µM,–,> 100 µM,–,> 100 µM,–,–,> 100 µM
NN=C1/C(=C\c2ccccc2)CCC/C1=C/c1ccccc1,–,> 100 µM,–,45 µM,–,76.7 µM,–,> 100 µM,–,> 100 µM,–,> 100 µM,–,> 100 µM,–,–,> 100 µM
COC(=O)c1sc(-n2cnc3cc(OC)c(OC)cc32)cc1OCc1ccccc1C(F)(F)F,9.22 µM,> 25 µM,> 25 µM,> 25 µM,4.31 µM,18.1 µM,> 25 µM,> 25 µM,> 23.6 µM,> 25 µM,11 µM,> 25 µM,15.3 µM,> 25 µM,> 25 µM,> 25 µM,–
CC1CCc2c(C(=O)Nc3ncc(Cc4cccc([N+](=O)[O-])c4)s3)csc2C1 (stereo unspecified),0.795 µM,> 100 µM,0.612 µM,> 100 µM,2.68 µM,> 100 µM,0.753 µM,> 100 µM,0.4 µM,> 100 µM,5.04 µM,> 100 µM,1.42 µM,> 100 µM,0.46 µM,> 100 µM,–
CC(C)(c1ccc(C=O)o1)c1ccc(C(C)(C)c2ccc(C=O)o2)o1,–,> 100 µM,–,> 100 µM,–,> 100 µM,–,> 100 µM,–,> 100 µM,–,> 100 µM,–,> 100 µM,–,–,> 100 µM
